Patent US20100093744A1, “THIOGLUCOSE SPIROKETAL DERIVATIVE AND USE THEREOF AS THERAPEUTIC AGENT FOR DIABETES” (Chugai Seiyaku Kabushiki Kaisha, priority 2007, published 2010)

Target: T1, human SGLT2 (Homo sapiens, UniProt P31639)
T1 construct: expressed in transfected cells
T1 sequence (P31639 1-672): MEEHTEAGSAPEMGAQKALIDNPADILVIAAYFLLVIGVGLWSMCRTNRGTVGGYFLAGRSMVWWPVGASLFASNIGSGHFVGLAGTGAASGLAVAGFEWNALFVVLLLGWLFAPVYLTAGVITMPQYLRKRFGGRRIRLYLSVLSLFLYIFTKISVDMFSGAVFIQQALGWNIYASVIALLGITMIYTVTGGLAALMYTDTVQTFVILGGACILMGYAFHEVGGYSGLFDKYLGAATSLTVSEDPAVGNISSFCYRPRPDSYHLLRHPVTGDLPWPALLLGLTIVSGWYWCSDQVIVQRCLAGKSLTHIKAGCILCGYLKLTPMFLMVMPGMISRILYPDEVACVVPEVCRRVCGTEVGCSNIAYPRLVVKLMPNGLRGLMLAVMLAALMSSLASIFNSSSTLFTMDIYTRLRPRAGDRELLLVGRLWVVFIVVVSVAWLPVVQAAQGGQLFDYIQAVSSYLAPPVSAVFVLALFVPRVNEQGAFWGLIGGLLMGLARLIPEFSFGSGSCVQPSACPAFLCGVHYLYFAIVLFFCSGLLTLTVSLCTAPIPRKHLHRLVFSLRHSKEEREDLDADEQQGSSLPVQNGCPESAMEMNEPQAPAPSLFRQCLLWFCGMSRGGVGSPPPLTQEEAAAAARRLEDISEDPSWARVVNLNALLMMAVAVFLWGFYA
Assay: Inhibition of methyl-α-D-glucopyranoside uptake in CHO cells stably expressing human SGLT2
Format: cell-based
Details: methyl-α-D-(U-14C)glucopyranoside uptake, 37° C., 45 minutes, read-out: ICH value for the inhibition of SGLT2
Experimental: Assay for Evaluating Inhibition of Activity of Human Na^+-Glucose Cotransporter (SGLT1 and SGLT2)
Human SGLT2 cDNA was amplified by PCR with a cDNA library derived from human kidney (Clontech) as a template, synthetic DNA primers, and KOD+ DNA Polymerase. The amplified cDNA was inserted into pcRII-Topo vector by using a Topo TA Cloning Dual Promoter kit. E. coli competent cells (TPO10) were transformed with the plasmid vector, and then cultured in LB medium containing ampicillin (50 mg/L) to grow ampicillin-resistant clones. The plasmid vector containing human SGLT2 cDNA was purified from the clone in a standard manner. Human SGLT2 cDNA added restriction enzyme recognition sites (Xho I at 5′-end, Hind III at 3′-end) was amplified by PCR with the plasmid vector as a template, synthetic DNA primers containing an additional restriction enzyme recognition site, and KOD+ DNA Polymerase. This amplified cDNA was digested with Xho I and Hind III, and the resulting fragment was ligated into expression vector pcDNA3.1(−) digested with Xho I and Hind III by using a Rapid DNA Ligation kit. E. coli competent cells (DH5α) were transformed with the ligated expression vector and grown in ampicillin-containing LB medium. Human SGLT2 expression vector was purified from the ampicillin-resistant clone in a standard manner. […]

With `CCc1ccc(Cc2ccc3c(c2)[C@]2(OC3)S[C@H](CO)[C@@H](O)[C@H](O)[C@H]2O)cc1` [Example 1, (1S,3′R,4′S,5′S,6′R)-6-[(4-ethylphenyl)methyl]-3′,4′,5′,6′-tetrahydro-6′-(hydroxymethyl)-spiro[isobenzofuran-1(3H),2′-[2H]thiopyran]-3′,4′,5′-triol] the IC50 was 12 nM.
